Consider three compounds from article PMC3116920, “Mechanisms for the Evolution of a Derived Function in the Ancestral Glucocorticoid Receptor” (PLoS Genetics, 2011).

In one assay the target is T1, Leri GR (Leucoraja erinaceus, UniProt Q1KXY4).
T1 construct: LBD fused to Gal4 DBD in pSG5; CHO-K1 cells with UAS-luciferase
T1 sequence (Q1KXY4 1-317): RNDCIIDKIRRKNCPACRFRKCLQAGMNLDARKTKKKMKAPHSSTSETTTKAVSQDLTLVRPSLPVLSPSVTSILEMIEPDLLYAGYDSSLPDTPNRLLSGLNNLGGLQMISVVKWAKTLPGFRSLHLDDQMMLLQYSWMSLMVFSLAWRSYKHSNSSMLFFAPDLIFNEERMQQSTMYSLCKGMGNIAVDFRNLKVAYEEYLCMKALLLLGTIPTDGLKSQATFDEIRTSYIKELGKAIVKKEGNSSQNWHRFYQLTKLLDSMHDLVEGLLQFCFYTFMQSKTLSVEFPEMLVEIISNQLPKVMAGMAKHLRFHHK
In words: cell-based. On the set-up: species or system CHO-K1; Gal4DBD-LBD UAS-driven luciferase reporter transactivation, Dual-Glo read-out. The protocol:
LBDs were cloned as fusion proteins into a pSG5-Gal4DBD expression vector (gift of D. Furlow) and cotransfected using Lipofectamine and Plus Reagents (Invitrogen, Carlsbad, CA) with a UAS-driven luciferase reporter gene (pFRluc) into mammalian cell culture (CHO-K1), and grown in phenol red-free α-MEM plus 10% dextran-charcoal-stripped fetal bovine serum (Hyclone, Logan, UT). Cells were incubated with transfection reagents for four hours, after which they were treated with fresh medium; after recovery, cells were treated in triplicate with hormone or vehicle control, and incubated for one day. Reporter expression was measured using Dual-Glo (Promega, Madison, WI) and dose-response relationships analyzed using Prism4 (GraphPad, La Jolla, CA). Site-directed mutagenesis was carried out using QuickChange II (Stratagene, La Jolla, CA) and clones verified by DNA sequencing. Plausible alternate states were defined as non-maximum likelihood amino acid states with posterior probability >0.20; we reasoned that residues that are present in one or more extant high-sensitivity receptors are the most likely to increase receptor sensitivity, whereas those that are present only in low-sensitivity receptors are unlikely to confer high sensitivity. Each such alternate state was introduced singly into the ML AncGR1.1, and the experimental characterization was repeated. We used a luciferase reporter gene expression assay to characterize the sensitivity of each LBD to four major corticosteroids present in elasmobranchs – 11-deoxycorticosterone (DOC), corticosterone, 1alpha-hydroxycorticosterone, and 11-dehydrocorticosterone, [35]. […] All hormone-activated cartilaginous fish GRs were most sensitive to DOC and corticosterone. The receptors had EC50 values (the hormone concentration required to elicit half-maximal activation) for these steroids in the 10^−8 to 10^−6 M range (Figure 2, Table S1), typical of the EC50s of bony fish GRs for glucocorticoids but two to four orders of magnitude greater than AncCR or the MRs of bony vertebrates. […]

Assay [1] concerns the target T2, AncCR (synthetic construct, UniProt Z9R9E8A6B0).
T2 construct: LBD fused to Gal4 DBD in pSG5; CHO-K1 cells with UAS-luciferase
T2 sequence (Z9R9E8A6B0 4-249): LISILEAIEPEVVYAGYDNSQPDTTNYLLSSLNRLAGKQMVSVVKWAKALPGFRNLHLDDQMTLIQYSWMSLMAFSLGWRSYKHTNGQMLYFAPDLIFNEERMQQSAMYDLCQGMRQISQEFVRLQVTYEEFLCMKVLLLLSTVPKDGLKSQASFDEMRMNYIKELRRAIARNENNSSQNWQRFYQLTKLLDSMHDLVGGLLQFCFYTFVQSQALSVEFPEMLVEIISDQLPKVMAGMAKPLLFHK
In words: luciferase reporter gene activation (Gal4DBD-LBD). To be noted: CHO-K1 cells, agonist, one day, triplicate; error is SE. The format is cell-based. The source says: (§1) luciferase reporter gene activation (Gal4DBD-LBD) on AncCR
For orientation: A reporter such as luciferase makes a cellular process visible.

In assay [2] the target is T3, AncCR (synthetic construct, UniProt Z9R9E8A6B0, L4M/S74C, form not given).
T3 construct: LBD fused to Gal4 DBD in pSG5; CHO-K1 cells with UAS-luciferase
T3 sequence (Z9R9E8A6B0 4-249 L4M/S74C): T2 sequence (Z9R9E8A6B0 4-249) with L1M, S71C
In words: luciferase reporter gene activation (Gal4DBD-LBD). The assay is classed as cell-based. To be noted: CHO-K1 cells, agonist, one day, triplicate; error is SE.
From the text: as §1

For assay [3], the target named is T4, AncCR (synthetic construct, UniProt Z9R9E8A6B0, S74C/A110S, form not given).
T4 construct: LBD fused to Gal4 DBD in pSG5; CHO-K1 cells with UAS-luciferase
T4 sequence (Z9R9E8A6B0 4-249 S74C/A110S): T2 sequence (Z9R9E8A6B0 4-249) with S71C, A107S
As to the kind of experiment: luciferase reporter gene activation (Gal4DBD-LBD). The assay is classed as cell-based. The conditions noted are these: CHO-K1 cells, agonist, one day, triplicate; error is SE.
From the text: as §1

In assay [4] the target is T5, AncCR (synthetic construct, UniProt Z9R9E8A6B0, S74C, form not given).
T5 construct: LBD fused to Gal4 DBD in pSG5; CHO-K1 cells with UAS-luciferase
T5 sequence (Z9R9E8A6B0 4-249 S74C): T2 sequence (Z9R9E8A6B0 4-249) with S71C
As to the kind of experiment: luciferase reporter gene activation (Gal4DBD-LBD). The format is cell-based. The conditions noted are these: CHO-K1 cells, agonist, one day, triplicate; error is SE.
From the text: as §1

For assay [5], the target named is T6, AncCR (synthetic construct, UniProt Z9R9E8A6B0, S74C/K86Q, form not given).
T6 construct: LBD fused to Gal4 DBD in pSG5; CHO-K1 cells with UAS-luciferase
T6 sequence (Z9R9E8A6B0 4-249 S74C/K86Q): T2 sequence (Z9R9E8A6B0 4-249) with S71C, K83Q
As to the kind of experiment: luciferase reporter gene activation (Gal4DBD-LBD). The format is cell-based. The conditions noted are these: CHO-K1 cells, agonist, one day, triplicate; error is SE.
From the text: as §1

Assay [6] concerns the target T7, AncCR (synthetic construct, UniProt Z9R9E8A6B0, S74C/Q116K, form not given).
T7 construct: LBD fused to Gal4 DBD in pSG5; CHO-K1 cells with UAS-luciferase
T7 sequence (Z9R9E8A6B0 4-249 S74C/Q116K): T2 sequence (Z9R9E8A6B0 4-249) with S71C, Q113K
As to the kind of experiment: luciferase reporter gene activation (Gal4DBD-LBD). The assay is classed as cell-based. The conditions noted are these: CHO-K1 cells, agonist, one day, triplicate; error is SE.
From the text: as §1

The target of assay [7] is T8, AncCR (synthetic construct, UniProt Z9R9E8A6B0, S74C/Q214E, form not given).
T8 construct: LBD fused to Gal4 DBD in pSG5; CHO-K1 cells with UAS-luciferase
T8 sequence (Z9R9E8A6B0 4-249 S74C/Q214E): T2 sequence (Z9R9E8A6B0 4-249) with S71C, Q211E
As to the kind of experiment: luciferase reporter gene activation (Gal4DBD-LBD). The format is cell-based. To be noted: CHO-K1 cells, agonist, one day, triplicate; error is SE.
From the text: as §1

Assay [8] addresses T9, AncCR (synthetic construct, UniProt Z9R9E8A6B0, S74C/R119H, form not given).
T9 construct: LBD fused to Gal4 DBD in pSG5; CHO-K1 cells with UAS-luciferase
T9 sequence (Z9R9E8A6B0 4-249 S74C/R119H): T2 sequence (Z9R9E8A6B0 4-249) with S71C, R116H
As to the kind of experiment: luciferase reporter gene activation (Gal4DBD-LBD). The assay is classed as cell-based. To be noted: CHO-K1 cells, agonist, one day, triplicate; error is SE.
From the text: as §1

Assay [9] has as its target T10, AncCR (synthetic construct, UniProt Z9R9E8A6B0, V46A/R119H, form not given).
T10 construct: LBD fused to Gal4 DBD in pSG5; CHO-K1 cells with UAS-luciferase
T10 sequence (Z9R9E8A6B0 4-249 V46A/R119H): T2 sequence (Z9R9E8A6B0 4-249) with V43A, R116H
In words: luciferase reporter gene activation (Gal4DBD-LBD). The assay is classed as cell-based. The conditions noted are these: CHO-K1 cells, agonist, one day, triplicate; error is SE.
From the text: as §1

The target in assay [10] is T11, AncCR (synthetic construct, UniProt Z9R9E8A6B0, V46A/S74C, form not given).
T11 construct: LBD fused to Gal4 DBD in pSG5; CHO-K1 cells with UAS-luciferase
T11 sequence (Z9R9E8A6B0 4-249 V46A/S74C): T2 sequence (Z9R9E8A6B0 4-249) with V43A, S71C
In words: luciferase reporter gene activation (Gal4DBD-LBD). The assay is classed as cell-based. To be noted: CHO-K1 cells, agonist, one day, triplicate; error is SE.
From the text: as §1

Assay [11] concerns the target T12, AncCR (synthetic construct, UniProt Z9R9E8A6B0, V46A/S74C/R119H, form not given).
T12 construct: LBD fused to Gal4 DBD in pSG5; CHO-K1 cells with UAS-luciferase
T12 sequence (Z9R9E8A6B0 4-249 V46A/S74C/R119H): T2 sequence (Z9R9E8A6B0 4-249) with V43A, S71C, R116H
In words: luciferase reporter gene activation (Gal4DBD-LBD). The assay is classed as cell-based. The conditions noted are these: CHO-K1 cells, agonist, one day, triplicate; error is SE.
From the text: as §1

Changes are numbered by the printed parent chain. Read-outs that look alike come from different tables or passages of the source.

One may read the EC50 as the concentration needed to bring the measured effect to its halfway point. With `C[C@]12C[C@H](O)[C@H]3[C@@H](CCC4=CC(=O)C[C@H](O)[C@@]43C)[C@@H]1CC[C@@H]2C(=O)CO` [1α-B, 1α-hydroxycorticosterone], the EC50 on Leri GR (read-out: 1α-B log EC50 (converted)) is 2000 nM.

As to `C[C@]12C[C@H](O)[C@H]3[C@@H](CCC4=CC(=O)CC[C@@]43C)[C@@H]1CC[C@@H]2C(=O)CO` [B, corticosterone], the EC50 at Leri GR (read-out: B log EC50 (converted)) is 28.3 nM.

Consider `C[C@]12CC[C@H]3[C@@H](CCC4=CC(=O)CC[C@@]43C)[C@@H]1CC[C@@H]2C(=O)CO` [DOC, 11-deoxycorticosterone], for which the “log EC50 ^b” value was −10.690 ± 0.64 log10 M at AncCR [1]; −10.250 ± 0.30 log10 M at AncCR [2]; −10.350 ± 0.24 log10 M on AncCR [3]; −10.870 ± 0.34 log10 M at AncCR [4]; −10.330 ± 0.41 log10 M on AncCR [5]; −9.773 ± 0.43 log10 M on AncCR [6]. For the same compound, the “log EC50 ^b” value is given as −10.170 ± 0.43 log10 M on AncCR [7]; −8.812 ± 0.28 log10 M on AncCR [8]; −8.387 ± 0.54 log10 M on AncCR [9]; −8.443 ± 0.15 log10 M at AncCR [10]; −6.418 ± 0.06 log10 M on AncCR [11]. Besides, the EC50 at Leri GR (read-out: DOC log EC50 (converted)) is 305 nM.
